Assay results: patent US12297285B2 (Orna Therapeutics, Inc., priority 2022, dated 2025)

Columns and labels:
Assay in all cases: IRES screening, Gaussia luciferase from LNP-oRNA (Table 27)
Settings in all cases: Gaussia luciferase luminescence in supernatant 48 hours after LNP-oRNA transfection, normalized to control (caprine kobuvirus IRES)
[1] = system: primary human skeletal myotubes
[2] = system: primary human hepatocytes
[3] = system: activated primary human T cells

CC(C)CCC(COC(=O)CCCCCCCC(CCCCCCCC(=O)OCC(CCC(C)C)C(C)C)OC(=O)CCCn1ccnc1)C(C)C (stereo not drawn) [Lipid 10a-97]
[Mod] Fold Change Myo [1]: 0.2602 Fold Change | [Mod] PHH Fold Change [2]: 1.163 Fold Change | [Mod] T Fold Change [3]: 0.3532 Fold Change

Cc1nccn1CCCC(=O)OC(CCCCCCCC(=O)OCC(CCC(C)C)C(C)C)CCCCCCCC(=O)OCC(CCC(C)C)C(C)C (stereo not drawn) [Lipid 10a-98]
[Mod] Fold Change Myo [1]: 0.2906 Fold Change | [Mod] PHH Fold Change [2]: 0.788 Fold Change | [Mod] T Fold Change [3]: 0.677 Fold Change

Cc1nccn1CCCN(CCCCCCCC(=O)OCC(CCC(C)C)C(C)C)CCCCCCCC(=O)OCC(CCC(C)C)C(C)C (stereo not drawn) [Lipid 10a-99]
[Mod] Fold Change Myo [1]: 0.1639 Fold Change | [Mod] PHH Fold Change [2]: 1.02 Fold Change | [Mod] T Fold Change [3]: 0.2767 Fold Change

CC(C)CCC(C)CCOC(=O)CCCCCCCN(CCCCCCCC(=O)OCCC(C)CCC(C)C)CCCn1ccnc1 (stereo not drawn) [Lipid 10a-100]
[Mod] Fold Change Myo [1]: 0.4952 Fold Change | [Mod] PHH Fold Change [2]: 1.228 Fold Change | [Mod] T Fold Change [3]: 0.4826 Fold Change

CC(C)CCC(C)CCOC(=O)CCCCCCCC(CCCCCCCC(=O)OCCC(C)CCC(C)C)OC(=O)CCCn1ccnc1 (stereo not drawn) [Lipid 10a-101]
[Mod] Fold Change Myo [1]: 0.533 Fold Change | [Mod] PHH Fold Change [2]: 1.37 Fold Change | [Mod] T Fold Change [3]: 0.853 Fold Change

Cc1nccn1CCCN(CCCCCCCC(=O)OCCC(C)CCC(C)C)CCCCCCCC(=O)OCCC(C)CCC(C)C (stereo not drawn) [Lipid 10a-102]
[Mod] Fold Change Myo [1]: 0.04469 Fold Change | [Mod] PHH Fold Change [2]: 0.5141 Fold Change | [Mod] T Fold Change [3]: 0.031 Fold Change

Cc1nccn1CCCC(=O)OC(CCCCCCCC(=O)OCCC(C)CCC(C)C)CCCCCCCC(=O)OCCC(C)CCC(C)C (stereo not drawn) [Lipid 10a-103]
[Mod] Fold Change Myo [1]: 0.04558 Fold Change | [Mod] PHH Fold Change [2]: 0.6471 Fold Change | [Mod] T Fold Change [3]: 0.03951 Fold Change

CC(CCOC(=O)CCCCCCCCN(CCCCCCCCC(=O)OCCC(C)CC(C)(C)C)CCCn1ccnc1)CC(C)(C)C (stereo not drawn) [Lipid 10a-104]
[Mod] Fold Change Myo [1]: 0.07607 Fold Change | [Mod] PHH Fold Change [2]: 0.7745 Fold Change | [Mod] T Fold Change [3]: 0.1688 Fold Change

CC(CCOC(=O)CCCCCCCCC(CCCCCCCCC(=O)OCCC(C)CC(C)(C)C)OC(=O)CCCn1ccnc1)CC(C)(C)C (stereo not drawn) [Lipid 10a-105]
[Mod] Fold Change Myo [1]: 0.2496 Fold Change | [Mod] PHH Fold Change [2]: 0.642 Fold Change | [Mod] T Fold Change [3]: 0.329 Fold Change

Cc1nccn1CCCN(CCCCCCCCC(=O)OCCC(C)CC(C)(C)C)CCCCCCCCC(=O)OCCC(C)CC(C)(C)C (stereo not drawn) [Lipid 10a-106]
[Mod] Fold Change Myo [1]: 0.3524 Fold Change | [Mod] PHH Fold Change [2]: 1.093 Fold Change | [Mod] T Fold Change [3]: 0.648 Fold Change

Cc1nccn1CCCC(=O)OC(CCCCCCCCC(=O)OCCC(C)CC(C)(C)C)CCCCCCCCC(=O)OCCC(C)CC(C)(C)C (stereo not drawn) [Lipid 10a-107]
[Mod] Fold Change Myo [1]: 0.2879 Fold Change | [Mod] PHH Fold Change [2]: 1.119 Fold Change | [Mod] T Fold Change [3]: 0.9371 Fold Change

CCCCC(CC)CCC(=O)OCCCCCCN(CCCCCCOC(=O)CCC(CC)CCCC)CCCn1ccnc1 (stereo not drawn) [Lipid 10a-109]
[Mod] Fold Change Myo [1]: 0.2492 Fold Change | [Mod] PHH Fold Change [2]: 0.8533 Fold Change | [Mod] T Fold Change [3]: 0.6261 Fold Change

CCCCC(CC)CCC(=O)OCCCCCCN(CCCCCCOC(=O)CCC(CC)CCCC)CCCn1ccnc1C (stereo not drawn) [Lipid 10a-110]
[Mod] Fold Change Myo [1]: 0.2424 Fold Change | [Mod] PHH Fold Change [2]: 0.7175 Fold Change | [Mod] T Fold Change [3]: 0.5133 Fold Change

CCCCC(CC)CCC(=O)OCCCCCCC(CCCCCCOC(=O)CCC(CC)CCCC)OC(=O)CCCn1ccnc1C (stereo not drawn) [Lipid 10a-111]
[Mod] Fold Change Myo [1]: 0.2223 Fold Change | [Mod] PHH Fold Change [2]: 0.787 Fold Change | [Mod] T Fold Change [3]: 0.4651 Fold Change

CCCCC(C)CCC(=O)OCCCCCCN(CCCCCCOC(=O)CCC(C)CCCC)CCCn1ccnc1 (stereo not drawn) [Lipid 10a-112]
[Mod] Fold Change Myo [1]: 0.3711 Fold Change | [Mod] PHH Fold Change [2]: 0.8075 Fold Change | [Mod] T Fold Change [3]: 0.637 Fold Change

CCCCC(C)CCC(=O)OCCCCCCC(CCCCCCOC(=O)CCC(C)CCCC)OC(=O)CCCn1ccnc1 (stereo not drawn) [Lipid 10a-113]
[Mod] Fold Change Myo [1]: 0.3171 Fold Change | [Mod] PHH Fold Change [2]: 0.8279 Fold Change | [Mod] T Fold Change [3]: 0.4373 Fold Change

CCCCC(C)CCC(=O)OCCCCCCN(CCCCCCOC(=O)CCC(C)CCCC)CCCn1ccnc1C (stereo not drawn) [Lipid 10a-114]
[Mod] Fold Change Myo [1]: 0.05835 Fold Change | [Mod] PHH Fold Change [2]: 0.7898 Fold Change | [Mod] T Fold Change [3]: 0.06812 Fold Change

CCCCC(C)CCC(=O)OCCCCCCC(CCCCCCOC(=O)CCC(C)CCCC)OC(=O)CCCn1ccnc1C (stereo not drawn) [Lipid 10a-115]
[Mod] Fold Change Myo [1]: 0.05074 Fold Change | [Mod] PHH Fold Change [2]: 0.425 Fold Change | [Mod] T Fold Change [3]: 0.04693 Fold Change

CC(C)CCCC(C)CC(=O)OCCCCCCC(CCCCCCOC(=O)CC(C)CCCC(C)C)OC(=O)CCCn1ccnc1 (stereo not drawn) [Lipid 10a-116]
[Mod] Fold Change Myo [1]: 0.03921 Fold Change | [Mod] PHH Fold Change [2]: 0.5299 Fold Change | [Mod] T Fold Change [3]: 0.03074 Fold Change

Cc1nccn1CCCC(=O)OC(CCCCCCOC(=O)CC(C)CCCC(C)C)CCCCCCOC(=O)CC(C)CCCC(C)C (stereo not drawn) [Lipid 10a-117]
[Mod] Fold Change Myo [1]: 0.04273 Fold Change | [Mod] PHH Fold Change [2]: 0.4258 Fold Change | [Mod] T Fold Change [3]: 0.04612 Fold Change

CC(C)=CCCC(C)CC(=O)OCCCCCCC(CCCCCCOC(=O)CC(C)CCC=C(C)C)OC(=O)CCCn1ccnc1 (stereo not drawn) [Lipid 10a-118]
[Mod] Fold Change Myo [1]: 0.1546 Fold Change | [Mod] PHH Fold Change [2]: 0.6669 Fold Change | [Mod] T Fold Change [3]: 0.4562 Fold Change

CC(C)=CCCC(C)CC(=O)OCCCCCCC(CCCCCCOC(=O)CC(C)CCC=C(C)C)OC(=O)CCCn1ccnc1C (stereo not drawn) [Lipid 10a-119]
[Mod] Fold Change Myo [1]: 0.198 Fold Change | [Mod] PHH Fold Change [2]: 0.6212 Fold Change | [Mod] T Fold Change [3]: 0.9876 Fold Change

CC(C)=CCC/C(C)=C/C(=O)OCCCCCCC(CCCCCCOC(=O)/C=C(\C)CCC=C(C)C)OC(=O)CCCn1ccnc1 (stereo not drawn) [Lipid 10a-120]
[Mod] Fold Change Myo [1]: 0.2755 Fold Change | [Mod] PHH Fold Change [2]: 0.4893 Fold Change | [Mod] T Fold Change [3]: 0.7019 Fold Change

CC(C)=CCC/C(C)=C/C(=O)OCCCCCCC(CCCCCCOC(=O)/C=C(\C)CCC=C(C)C)OC(=O)CCCn1ccnc1C (stereo not drawn) [Lipid 10a-121]
[Mod] Fold Change Myo [1]: 0.6276 Fold Change | [Mod] PHH Fold Change [2]: 0.9977 Fold Change | [Mod] T Fold Change [3]: 1.029 Fold Change

CC(C)CCCC(C)CC(=O)OCCCCCCN(CCCCCCOC(=O)CC(C)CCCC(C)C)CCCn1ccnc1 (stereo not drawn) [Lipid 10a-122]
[Mod] Fold Change Myo [1]: 0.3886 Fold Change | [Mod] PHH Fold Change [2]: 0.8322 Fold Change | [Mod] T Fold Change [3]: 0.8876 Fold Change

Cc1nccn1CCCN(CCCCCCOC(=O)CC(C)CCCC(C)C)CCCCCCOC(=O)CC(C)CCCC(C)C (stereo not drawn) [Lipid 10a-123]
[Mod] Fold Change Myo [1]: 0.03971 Fold Change | [Mod] PHH Fold Change [2]: 0.638 Fold Change | [Mod] T Fold Change [3]: 0.03011 Fold Change

CC(C)=CCCC(C)CC(=O)OCCCCCCN(CCCCCCOC(=O)CC(C)CCC=C(C)C)CCCn1ccnc1C (stereo not drawn) [Lipid 10a-125]
[Mod] Fold Change Myo [1]: 0.3827 Fold Change | [Mod] PHH Fold Change [2]: 0.6492 Fold Change | [Mod] T Fold Change [3]: 0.6418 Fold Change

CC(C)=CCC/C(C)=C/C(=O)OCCCCCCN(CCCCCCOC(=O)/C=C(\C)CCC=C(C)C)CCCn1ccnc1 [Lipid 10a-126]
[Mod] Fold Change Myo [1]: 0.05793 Fold Change | [Mod] PHH Fold Change [2]: 0.6456 Fold Change | [Mod] T Fold Change [3]: 0.06647 Fold Change

CC(C)=CCC/C(C)=C/C(=O)OCCCCCCN(CCCCCCOC(=O)/C=C(\C)CCC=C(C)C)CCCn1ccnc1C [Lipid 10a-127]
[Mod] Fold Change Myo [1]: 0.2936 Fold Change | [Mod] PHH Fold Change [2]: 0.6745 Fold Change | [Mod] T Fold Change [3]: 0.6858 Fold Change

CCCCCCCCC(CCCCCC)C(=O)OCCCCCCN(CCCCCCOC(=O)C(CCCCCC)CCCCCCCC)Cc1nccn1C (stereo not drawn) [Lipid 10a-128]
[Mod] Fold Change Myo [1]: 0.4893 Fold Change | [Mod] PHH Fold Change [2]: 1.021 Fold Change | [Mod] T Fold Change [3]: 0.5837 Fold Change

CCCCCCCCC(CCCCCC)C(=O)OCCCCCCN(CCCCCCOC(=O)C(CCCCCC)CCCCCCCC)CCn1ccnc1 (stereo not drawn) [Lipid 10a-129]
[Mod] Fold Change Myo [1]: 0.05369 Fold Change | [Mod] PHH Fold Change [2]: 0.6689 Fold Change | [Mod] T Fold Change [3]: 0.08945 Fold Change

CCCCCCCCC(CCCCCC)C(=O)OCCCCCCN(CCCCCCOC(=O)C(CCCCCC)CCCCCCCC)CCC(C)n1ccnc1 (stereo not drawn) [Lipid 10a-130]
[Mod] Fold Change Myo [1]: 0.04058 Fold Change | [Mod] PHH Fold Change [2]: 0.5728 Fold Change | [Mod] T Fold Change [3]: 0.06076 Fold Change

CCCCCCCCCOC(=O)CCCCCCCN(CCCCCCCC(=O)OC(CCCCCCCC)CCCCCCCC)CCC(C)n1ccnc1 (stereo not drawn) [Lipid 10a-131]
[Mod] Fold Change Myo [1]: 0.03951 Fold Change | [Mod] PHH Fold Change [2]: 0.5348 Fold Change | [Mod] T Fold Change [3]: 0.03336 Fold Change

CCCCCCCCCOC(=O)CCCCCCCN(CCCCCCCC(=O)OC(CCCCCCCC)CCCCCCCC)CCn1ccnc1 [Lipid 10a-132]
[Mod] Fold Change Myo [1]: 0.03998 Fold Change | [Mod] PHH Fold Change [2]: 0.5643 Fold Change | [Mod] T Fold Change [3]: 0.03118 Fold Change

CCCCCCCCCOC(=O)CCCCCCCN(CCCCCCCC(=O)OC(CCCCCCCC)CCCCCCCC)Cc1nccn1C [Lipid 10a-133]
[Mod] Fold Change Myo [1]: 0.03933 Fold Change | [Mod] PHH Fold Change [2]: 0.541 Fold Change | [Mod] T Fold Change [3]: 0.03004 Fold Change

CCCCCCCCCCCCCCN(CCC(C)n1ccnc1)C(CCCCCCCCC(=O)OCC(CCCC)CCCCCC)CCCCCCCCC(=O)OCC(CCCC)CCCCCC (stereo not drawn) [Lipid 10a-134]
[Mod] Fold Change Myo [1]: 0.04662 Fold Change | [Mod] PHH Fold Change [2]: 0.4673 Fold Change | [Mod] T Fold Change [3]: 0.05294 Fold Change

CCCCCCCCCCCCCCN(Cc1nccn1C)C(CCCCCCCCC(=O)OCC(CCCC)CCCCCC)CCCCCCCCC(=O)OCC(CCCC)CCCCCC (stereo not drawn) [Lipid 10a-136]
[Mod] Fold Change Myo [1]: 0.04786 Fold Change | [Mod] PHH Fold Change [2]: 0.4286 Fold Change | [Mod] T Fold Change [3]: 0.04232 Fold Change
